The values that follow come from patent US5965744A, “Ortho-substituted benzoylguanidines, including composition and methods of using them” (priority 1993, dated 1999).

SMILES strings stand for the structures. Structures can show the parent of a compound that is named as a salt.

The IC50 is the concentration that gives 50% inhibition.

In data set [1] the target is T1, Na^+ /H^+ Exchanger of Rabbit Erythrocytes (Oryctolagus cuniculus, UniProt P23791).
T1 construct: The blood was removed from the aural arteries; endogenous in cells; host or cells: erythrocytes of cholesterol-fed New Zealand White rabbits (whole blood samples)
In words: Inhibition of the Na^+ /H^+ Exchanger of Rabbit Erythrocytes (Na^+ influx by flame photometry). The data set is classed as cell-based, rabbit (New Zealand White). The settings on record: cholesterol-fed rabbits, pH 7.4, 37° C. An excerpt: Inhibition of the Na^+ /H^+ Exchanger of Rabbit Erythrocytes
New Zealand White rabbits (Ivanovas) received a standard diet containing 2% cholesterol for six weeks in order to activate the Na^+ /H^+ exchange and thus to be able to determine, by flame photometry, the Na^+ influx into the erythrocytes via Na^+ /H^+ exchange. The blood was removed from the aural arteries and rendered incoagulable using 25 IU of potassium heparin. A part of each sample was used for the duplicate determination of the hematocrit by means of centrifugation. Aliquots of in each case 100 μl were used for measuring the initial Na^+ content of the erythrocytes.
In order to determine the amiloride-sensitive sodium influx, 100 μl of each blood sample were in each case incubated, at pH 7.4 and 37° C., in 5 ml of a hyperosmolar salt/sucrose medium (mmol/l: 140 NaCl, 3 KCl, 150 sucrose, 0.1 ouabain, 20 tris(hydroxymethyl)aminomethane). The erythrocytes were then washed three times with ice-cold MgCl2 /ouabain solution ([…]: 112 MgCl2, 0.1 ouabain) and hemolyzed in 2.0 ml of distilled water. The intracellular sodium content was determined by flame photometry.
The net influx of Na^+ was calculated from the difference between the initial sodium values and the sodium content of the erythrocytes following incubation. The amiloride-inhibitable sodium influx was calculated from the difference in the sodium content of the erythrocytes following incubation with and without amiloride 3×10^-4 mol/l. This method was also employed in the case of the compounds according to the invention.

The test system of another data set is rat hearts. Particulars: isolated rat hearts, cited from earlier work.
In the next data set the test system is cardiac arrhythmia. The settings on record: cited from earlier work.

T1 sequence (P23791 whole entry): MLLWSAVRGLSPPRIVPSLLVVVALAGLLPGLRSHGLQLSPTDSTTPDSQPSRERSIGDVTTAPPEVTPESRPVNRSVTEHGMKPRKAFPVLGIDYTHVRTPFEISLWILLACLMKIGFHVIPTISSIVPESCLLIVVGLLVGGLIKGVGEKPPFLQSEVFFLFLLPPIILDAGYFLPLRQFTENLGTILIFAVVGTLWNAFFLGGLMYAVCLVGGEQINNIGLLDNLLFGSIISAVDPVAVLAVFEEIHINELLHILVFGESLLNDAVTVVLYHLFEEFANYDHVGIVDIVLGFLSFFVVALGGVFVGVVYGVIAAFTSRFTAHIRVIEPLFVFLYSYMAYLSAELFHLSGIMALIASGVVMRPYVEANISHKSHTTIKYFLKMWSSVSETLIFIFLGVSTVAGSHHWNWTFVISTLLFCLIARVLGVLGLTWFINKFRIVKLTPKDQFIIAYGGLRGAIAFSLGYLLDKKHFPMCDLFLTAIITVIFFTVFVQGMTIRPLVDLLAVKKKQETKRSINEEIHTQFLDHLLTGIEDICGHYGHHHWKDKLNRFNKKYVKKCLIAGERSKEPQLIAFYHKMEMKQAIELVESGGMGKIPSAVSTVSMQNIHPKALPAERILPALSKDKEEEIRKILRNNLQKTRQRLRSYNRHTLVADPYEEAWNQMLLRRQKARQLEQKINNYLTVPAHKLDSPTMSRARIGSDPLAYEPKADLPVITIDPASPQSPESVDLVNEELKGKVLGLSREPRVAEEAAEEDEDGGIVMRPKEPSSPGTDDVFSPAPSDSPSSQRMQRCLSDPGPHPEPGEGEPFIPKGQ

The compound `N=C(N)NC(=O)c1cccc(Cl)c1Cl` [Example 1, 2,3-Dichlorobenzoylguanidine hydrochloride] had an IC50 in data set [1] above 1000 nM. On the same count and under the same terms, with `N=C(N)NC(=O)c1cccc(C(F)(F)F)c1F` [Example 2, 2-Fluoro-3-trifluoromethylbenzoylguanidine hydrochloride] the figure was 2000 nM; with `N=C(N)NC(=O)c1ccc(Cl)cc1Cl` [Example 3, 2,4-Dichlorobenzoylguanidine hydrochloride], 8000 nM; with `N=C(N)NC(=O)c1ccc(C(F)(F)F)cc1F` [Example 4, 2-Fluoro-4-trifluoromethylbenzoylguanidine hydrochloride], 3000 nM.

In data set [1], `Cc1ccc(C)c(C(=O)NC(=N)N)c1` [Example 5, 2,5-Dimethylbenzoylguanidine hydrochloride] returned an IC50 of 2000 nM. Still for that read-out and setting: with `N=C(N)NC(=O)c1cc(Cl)ccc1Cl` [Example 6, 2,5-Dichlorobenzoylguanidine hydrochloride] the figure was 1500 nM; with `N=C(N)NC(=O)c1cc(C(F)(F)F)ccc1C(F)(F)F` [Example 7, 2,5-Bis(trifluoromethyl)benzoylguanidine hydrochloride], 160 nM; with `N=C(N)NC(=O)c1cc(C(F)(F)F)ccc1F` [Example 8, 2-Fluoro-5-trifluoromethylbenzoylguanidine hydrochloride], 700 nM.

With `N=C(N)NC(=O)c1cc(C(F)(F)F)ccc1Cl` [Example 9, 2-Chloro-5-trifluoromethylbenzoylguanidine hydrochloride], it took 160 nM to reach half-maximal inhibition in data set [1] (IC50). The same measure, in the same setting: with `N=C(N)NC(=O)c1cc(I)cc(C(F)(F)F)c1F` [Example 10, 2-Fluoro-5-iodo-3-trifluoromethylbenzoylguanidine hydrochloride] the figure was 90 nM. Turning to `N=C(N)NC(=O)c1nc(Cl)c(N)nc1N` [amiloride, Amiloride], the “suppression of artificially induced ventricular fibrillation” value with rat hearts is listed as “completely suppress”. Moreover, the “undesirable side effects when treating cardiac arrhythmia” value in the data set with cardiac arrhythmia (accompanying the antiarrhythmic effect) was “hypotensive and saluretic effects”. Besides, the antiarrhythmic effect result in the data set with cardiac arrhythmia (as antiarrhythmic agent) is “only weakly expressed”. Take `CCN(c1nc(N)c(C(=O)NC(=N)N)nc1Cl)C(C)C` [ethylisopropylamiloride, Ethylisopropylamiloride]: the “potency relative to amiloride in ventricular fibrillation model” value in the data set with rat hearts (compared with amiloride) is recorded as “even more potent than amiloride”.
